Molecules are shown by their SMILES. A value given as a limit tells only on which side of the number the result lay.

Sequence of TNFα (P01375 77-233): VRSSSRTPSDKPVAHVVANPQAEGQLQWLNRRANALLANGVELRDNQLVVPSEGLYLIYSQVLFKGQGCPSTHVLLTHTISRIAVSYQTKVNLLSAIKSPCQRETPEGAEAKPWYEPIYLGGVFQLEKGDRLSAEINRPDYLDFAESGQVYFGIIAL

The target in this assay is TNFα (Homo sapiens (Human), UniProt P01375). Description: TNF induced HEK-Blue assay. The settings on record: TNFα 0.5 ng/ml; HEK-Blue-CD40L cells, NF-κB-driven secreted alkaline phosphatase reporter; 18 h. It is filed as cell-based. How it is done:
TNF or CD40L-induced HEK-Blue Assay Test compounds serially diluted in DMSO were plated in an assay plate (Labcyte, Cat. #LP-0200) at final concentrations ranging from 0.004 μM to 25μM. TNFα (final concentration 0.5 ng/ml) or CD4OL (final concentration 30 ng/ml) in assay buffer [DMEM, 4.5 g/l glucose (Gibco, Cat. 21063-029), 10% FBS (Sigma, F4135), 1% Penicillin-Streptomycin (Gibco, Cat. 15140-122), 1% Anti-Anti (Gibco, Cat. 15240-112) and 2 mM L-glutamine (Gibco, Cat. 25030-081)] was then added to the assay plate. After a 30 minute pre-incubation at 37° C. and 5% CO2, HEK-Blue-CD40L cells (InvivoGen, Cat. Code hkb-cd40) containing a NF-κB-driven secreted alkaline phosphatase reporter gene were seeded into the assay plate at a density of 20,000 cells per well. This plate was then incubated for 18 h at 37° C. and 5% CO2. Secreted alkaline phosphatase expression was measured using QUANTI-Blue (InvivoGen, Cat. Code rep-qb1) according to manufacturer's specifications and the assay plate was read on a PerkinElmer Envision at 620 nm. Inhibition data for the test compound over a range of concentrations was plotted as percentage inhibition of the test compound (100%=maximum inhibition). IC50 values were determined after correcting for background [(sample read−mean of low control)/(mean of high control−mean of low control)] where by the low control is DMSO without stimulation and high control is DMSO with stimulation. The IC50 is defined as the concentration of test compound which produces 50% inhibition and was quantified using the 4 parameter logistic equation to fit the data.
As a reminder, the IC50 is the concentration at which inhibition is half-maximal. Read a low IC50 as greater potency in that assay. In turn, `CNS(=O)(=O)c1ccc(-c2ccc3nc4c(n3n2)[C@@H](c2ccccc2OC(F)F)NC[C@H]4O)cc1` (racemic) [Example 40, (+/−)-cis-4-(9-(2-(difluoromethoxy)phenyl)-6-hydroxy-6,7,8,9-tetrahydropyrido[4′,3′:4,5]imidazo[1,2-b]pyridazin-2-yl)-N-methylbenzenesulfonamide] yielded an IC50 of 1 to 10 µM.

`CS(=O)(=O)c1ccc(-c2ccc3nc4c(n3n2)[C@@H](c2ccccc2OC(F)F)NC[C@H]4O)cc1` (racemic) [Example 41, (+/−)-cis-9-(2-(difluoromethoxy)phenyl)-2-(4-(methylsulfonyl)phenyl)-6,7,8,9-tetrahydropyrido[4′,3′:4,5]imidazo[1,2-b]pyridazin-6-ol] returned an IC50 of 1 to 10 µM.

Compound `CC(C)(O)c1ccc(-c2ccc3nc4c(n3n2)[C@H](c2ccccc2OC(F)F)NC[C@@H]4O)cc1` [Example 7, Cis-(6S,9S)-9-(2-(difluoromethoxy)phenyl)-2-(4-(2-hydroxypropan-2-yl)phenyl)-6,7,8,9-tetrahydropyrido[4′,3′:4,5]imidazo[1,2-b]pyridazin-6-ol] came in with an IC50 of 1 to 10 µM.

The compound `CC(C)(O)c1ccc(-c2ccc3nc4c(n3n2)C(c2ccccc2OC(F)F)OCC4(O)c2ccncc2)cc1` (centres unmarked) [Example 60, 9-(2-(Difluoromethoxy)phenyl)-2-(4-(2-hydroxypropan-2-yl)phenyl)-6-(pyridin-4-yl)-6,9-dihydro-7H-pyrano[4′,3′:4,5]imidazo[1,2-b]pyridazin-6-ol] gave a half-maximal inhibitory concentration (IC50) of 1 to 10 µM.

For `O=C(c1ccc(-c2ccc3nc4c(n3n2)C(c2ccccc2OC(F)F)NCC4O)cc1)N1CCOCC1` (centres unmarked) [Example 19, (4-(9-(2-(difluoromethoxy)phenyl)-6-hydroxy-6,7,8,9-tetrahydropyrido[4′,3′:4,5]imidazo[1,2-b]pyridazin-2-yl)phenyl)(morpholino)methanone], the half-maximal inhibitory concentration (IC50) lay within 1 to 10 µM.

Turning to `NC(=O)c1ccc(-c2ccc3nc4c(n3n2)[C@@H](c2ccccc2OC(F)F)NC[C@H]4O)cc1Cl` (racemic) [Example 48, (+/−)-cis-2-chloro-4-(9-(2-(difluoromethoxy)phenyl)-6-hydroxy-6,7,8,9-tetrahydropyrido[4′,3′:4,5]imidazo[1,2-b]pyridazin-2-yl)benzamide], the IC50 fell in the range of 10 to 25 µM.

Take `CC(C)(O)c1ccc(-c2ccc3nc4c(n3n2)[C@@H](c2cc(Cl)ccc2OC(F)F)NC[C@H]4O)cc1` (racemic) [Example 54, (+/−)-cis-9-(5-chloro-2-(difluoromethoxy)phenyl)-2-(4-(2-hydroxypropan-2-yl)phenyl)-6,7,8,9-tetrahydropyrido[4′,3′:4,5]imidazo[1,2-b]pyridazin-6-ol]: the IC50 was in the range of 1 to 10 µM.

`Cn1cc(-c2ccc3nc4c(n3n2)C(c2ccccc2OC(F)F)OCC4)cn1` (centres unmarked) [Example 64, 9-(2-(Difluoromethoxy)phenyl)-2-(1-methyl-1H-pyrazol-4-yl)-7,9-dihydro-6H-pyrano[4′,3′:4,5]imidazo[1,2-b]pyridazine] yielded a concentration for half-maximal inhibition (IC50) of 1 to 10 µM.

Turning to `CC(C)(O)c1ncc(-c2ccc3nc4c(n3n2)C(c2ccccc2OC(F)F)NCC4O)cn1` (centres unmarked) [Example 17, 9-(2-(difluoromethoxy)phenyl)-2-(2-(2-hydroxypropan-2-yl)pyrimidin-5-yl)-6,7,8,9-tetrahydropyrido[4′,3′:4,5]imidazo[1,2-b]pyridazin-6-ol], the IC50 lay within 1 to 10 µM.

In turn, `COc1cc(-c2ccc3nc4c(n3n2)[C@@H](c2ccccc2OC(F)F)NC[C@H]4O)ccc1OCC(C)(C)O` (racemic) [Example 30, (+/−)-cis-9-(2-(difluoromethoxy)phenyl)-2-(4-(2-hydroxy-2-methylpropoxy)-3-methoxyphenyl)-6,7,8,9-tetrahydropyrido[4′,3′:4,5]imidazo[1,2-b]pyridazin-6-ol] had an IC50 of 1 to 10 µM.

For `CC(C)(O)c1ccc(-c2ccc3nc4c(n3n2)[C@@H](c2ccccc2OC(F)F)NC[C@@H]4O)cc1` [Example 15, trans-(6S,9R)-9-(2-(difluoromethoxy)phenyl)-2-(4-(2-hydroxypropan-2-yl)phenyl)-6,7,8,9-tetrahydropyrido [4′,3′:4,5]imidazo[1,2-b]pyridazin-6-ol], the IC50 fell in the range of 1 to 10 µM.

Compound `COCCOc1ccc(-c2ccc3nc4c(n3n2)[C@@H](c2ccccc2OC(F)F)NC[C@H]4O)cc1` (racemic) [Example 34, (+/−)-cis-9-(2-(difluoromethoxy)phenyl)-2-(4-(2-methoxyethoxy)phenyl)-6,7,8,9-tetrahydropyrido[4′,3′:4,5]imidazo[1,2-b]pyridazin-6-ol] showed a concentration for half-maximal inhibition (IC50) of 1 to 10 µM.

`O=C(NC1CC1)c1ccc(-c2ccc3nc4c(n3n2)C(c2ccccc2OC(F)F)NCC4O)cc1` (centres unmarked) [Example 20, N-cyclopropyl-4-(9-(2-(difluoromethoxy)phenyl)-6-hydroxy-6,7,8,9-tetrahydropyrido[4′,3′:4,5]imidazo[1,2-b]pyridazin-2-yl)benzamide]: the concentration for half-maximal inhibition (IC50) was 10 to 25 µM.

As for `COc1ccc(Cl)cc1[C@@H]1NC[C@@H](O)c2nc3ccc(-c4ccc(C(C)(C)O)cc4)nn3c21` (racemic) [Example 56, (+/−)-trans-9-(5-chloro-2-methoxyphenyl)-2-(4-(2-hydroxypropan-2-yl)phenyl)-6,7,8,9-tetrahydropyrido[4′,3′:4,5]imidazo[1,2-b]pyridazin-6-ol], the concentration for half-maximal inhibition (IC50) lay within 1 to 10 µM.

As for `CC(C)(O)c1ccc(-c2ccc3nc4c(n3n2)[C@H](c2ccccc2OC(F)F)NC[C@H]4F)cc1` (racemic) [Example 9, (+/−)-trans-2-(4-(9-(2-(difluoromethoxy)phenyl)-6-fluoro-6,7,8,9-tetrahydropyrido[4′,3′:4,5]imidazo[1,2-b]pyridazin-2-yl)phenyl)propan-2-ol], the IC50 was in the range of 1 to 10 µM.

In the case of `CC(C)(O)c1ccc(-c2ccc3nc4c(n3n2)C(c2ccccc2OC(F)F)NCC4F)cc1` [Example 12, cis-(1S,4S)-2-(4-(9-(2-(difluoromethoxy)phenyl)-6-fluoro-6,7,8,9-tetrahydropyrido[4′,3′:4,5]imidazo[1,2-b]pyridazin-2-yl)phenyl) propan-2-ol], the IC50 is under 1 µM.

The compound `CC(C)(O)c1ccc(-c2ccc3nc4c(n3n2)[C@H](c2ccccc2OC(F)F)OC[C@H]4O)cc1` (racemic) [Example 57, Rac-(6S,9S)-9-(2-(difluoromethoxy)phenyl)-2-(4-(2-hydroxypropan-2-yl)phenyl)-7,9-dihydro-6H-pyrano[4′,3′:4,5]imidazo[1,2-b]pyridazin-6-ol] yielded a concentration for half-maximal inhibition (IC50) of 1 to 10 µM.

For the origin of these results see patent US10308652B2, “Tricyclic heterocyclic compounds useful as inhibitors of TNF” (BRISTOL-MYERS SQUIBB COMPANY, priority 2015, dated 2019).
